Where two headings read alike, the source gives them in different places.
Assays:
RS4; 11 cells = experiment: Test 2: inhibition of cell proliferation, RS4;11; type: cell-based; details: for IC50: RS4;11 cells, 7 days, PrestoBlue cell viability
Procedure: (§1) RS4; 11 cells were obtained from American Type Culture Collection (ATCC). […] MOLM-13 cells were separately obtained from DSMZ (Deutsche Sammlung von Mikroorganismen und Zellkulturen GmbH).
(§2) The cells were plated to a 96-well plate in 2000 cells/well, each test compound was added thereto to adjust the final concentration of DMSO to 0.1% of DMSO, and the cells were cultured for 7 days. After the cultivation, the cell viability was calculated with PrestoBlue™ Cell Viability Reagent (Invitrogen, A13261).

MOLM-13 cells = experiment: Test 2: inhibition of cell proliferation, MOLM-13; type: cell-based; details: 7 days, PrestoBlue cell viability
Procedure: as §1, §2

[1] = biological target: hERG (human Ether-a-go-go Related Gene) (Homo sapiens (Human), UniProt Q12809); experiment: Test 4: hERG inhibition (QPatch HT, CHO cells stably expressing hERG); details: for hERG/RS4; 11: hERG IC50 divided by RS4;11 proliferation IC50
Chain of hERG (human Ether-a-go-go Related Gene) (Q12809 whole entry): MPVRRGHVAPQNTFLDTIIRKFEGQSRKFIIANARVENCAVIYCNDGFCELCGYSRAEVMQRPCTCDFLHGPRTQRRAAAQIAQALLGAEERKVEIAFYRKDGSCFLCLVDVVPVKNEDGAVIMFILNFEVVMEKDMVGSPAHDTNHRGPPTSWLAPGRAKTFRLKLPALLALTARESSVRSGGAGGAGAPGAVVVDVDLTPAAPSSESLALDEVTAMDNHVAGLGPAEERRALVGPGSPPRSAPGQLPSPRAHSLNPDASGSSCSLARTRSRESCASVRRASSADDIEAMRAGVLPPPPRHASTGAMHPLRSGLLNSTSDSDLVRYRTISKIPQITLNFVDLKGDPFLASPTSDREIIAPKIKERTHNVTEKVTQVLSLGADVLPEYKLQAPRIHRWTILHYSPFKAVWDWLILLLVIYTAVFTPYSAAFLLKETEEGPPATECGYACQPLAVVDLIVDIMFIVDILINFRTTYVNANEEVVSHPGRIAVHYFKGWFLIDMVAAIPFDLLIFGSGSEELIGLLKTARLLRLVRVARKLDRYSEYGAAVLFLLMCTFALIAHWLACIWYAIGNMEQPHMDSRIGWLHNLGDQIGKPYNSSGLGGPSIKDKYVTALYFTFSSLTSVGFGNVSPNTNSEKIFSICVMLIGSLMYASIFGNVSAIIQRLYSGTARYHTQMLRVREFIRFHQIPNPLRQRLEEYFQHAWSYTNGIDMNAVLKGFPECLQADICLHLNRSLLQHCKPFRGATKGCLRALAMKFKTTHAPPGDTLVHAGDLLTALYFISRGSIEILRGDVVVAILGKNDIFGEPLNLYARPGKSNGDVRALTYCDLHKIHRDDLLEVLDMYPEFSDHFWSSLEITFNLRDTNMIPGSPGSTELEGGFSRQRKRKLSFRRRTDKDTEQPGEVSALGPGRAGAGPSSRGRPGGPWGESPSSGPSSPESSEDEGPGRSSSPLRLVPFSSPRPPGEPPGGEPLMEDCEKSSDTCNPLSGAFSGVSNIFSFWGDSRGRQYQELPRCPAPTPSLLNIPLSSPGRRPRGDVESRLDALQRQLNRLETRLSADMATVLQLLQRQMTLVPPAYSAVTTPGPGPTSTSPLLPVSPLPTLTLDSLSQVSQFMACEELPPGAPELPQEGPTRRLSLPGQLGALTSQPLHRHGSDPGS

MEIS1 = experiment: Test 3: inhibition of mRNA transcription, MEIS1 in MV4;11 cells; type: cell-based; details: statement in words; MEIS1 and HOXA9, MV4;11 cells
Text: MV4; 11 cells were obtained from American Type Culture Collection (ATCC). […] The expression level of each obtained gene (MEIS1 and HOXA9) was fitted with the expression level of mRNA of GAPDH.

In the case of CC(C)N(C(=O)c1cc(F)ccc1Oc1cncnc1N1CCC2(CCN(C(=O)[C@H]3N[C@H]4CC[C@@H]3CC4)C2)C1)C(C)C (stereo partly drawn) [Example 2, 2-[(4-{7-[(1R,3S,4R)-2-Azabicyclo[2.2.2]octane-3-carbonyl]-2,7-diazaspiro[4.4]nonan-2-yl}pyrimidin-5-yl)oxy]-5-fluoro-N,N-di(propan-2-yl)benzamide], the IC50 (RS4; 11 cells; Homo sapiens) is reported as 870 nM, the IC50 (MOLM-13 cells; Homo sapiens) is reported as 810 nM and the IC50 [1] is reported as 11800 nM. The “hERG/RS4; 11” value [1] was 13.6.

C=C1C[C@@H]2CC[C@H]1[C@@H](C(=O)N1CC3(C1)CN(c1ncncc1Oc1ccc(F)cc1C(=O)N(C(C)C)C(C)C)C3)N2 [Example 7, 5-fluoro-2-[(4-{6-[(1S,3S,4R)-5-methylidene-2-azabicyclo[2.2.2]octane-3-carbonyl]-2,6-diazaspiro[3.3]heptan-2-yl}pyrimidin-5-yl)oxy]-N,N-di(propan-2-yl)benzamide] was tested, and the “mRNA transcription inhibition activity” value (MEIS1) was “showed the mRNA transcription inhibition activity”.

For CC(C)N(C(=O)c1cc(F)ccc1Oc1cncnc1N1CC2(CCN(C(=O)[C@H]3N[C@H]4CC[C@@H]3C(=O)C4)CC2)C1)C(C)C [Example 12, 5-fluoro-2-[(4-{7-[(1S,3S,4S)-5-oxo-2-azabicyclo[2.2.2]octane-3-carbonyl]-2,7-diazaspiro[3.5]nonan-2-yl}pyrimidin-5-yl)oxy]-N,N-di(propan-2-yl)benzamide], the IC50 (RS4; 11 cells; Homo sapiens) was 250 nM, the IC50 (MOLM-13 cells; Homo sapiens) was 250 nM and the IC50 [1] was over 100000 nM. The “gap between RS4; 11 proliferation IC50 and hERG current IC50” value [1] was “more than 100 fold” and the “hERG/RS4; 11” value [1] was over 400.

With CC(C)N(C(=O)c1cc(F)ccc1Oc1cncnc1N1CC2(CCN(C(=O)[C@H]3N[C@H]4CC[C@@H]3[C@@H](F)[C@H]4CC3CC3)CC2)C1)C(C)C [Example 14, 2-[(4-{7-[(1S,3S,4S,5S,6S)-6-(cyclropylmethyl)-5-fluoro-2-azabicyclo[2.2.2]octane-3-carbonyl]-2,7-diazaspiro[3.5]nonan-2-yl}pyrimidin-5-yl)oxy]-5-fluoro-N,N-di(propan-2-yl)benzamide] the IC50 (RS4; 11 cells) was 20 nM, the “cell proliferation inhibition activity” value (RS4; 11 cells; statement in words, RS4;11 and MOLM-13 cells) was “potent” and the IC50 (MOLM-13 cells) was 40 nM. For the same compound, the “gap between RS4; 11 proliferation IC50 and hERG current IC50” value [1] was “more than 100 fold” and the IC50 ([1]; read-out: hERG inhibition IC50, hERG current, CHO cells) was 11700 nM.

With CC(C)N(C(=O)c1cc(F)ccc1Oc1cncnc1N1CC2(CN(C(=O)[C@H]3N[C@@H]4CC[C@H]3C4)C2)C1)C(C)C [Example 15, 2-[(4-{6-[(1R,3S,4S)-2-azabicyclo[2.2.1]heptane-3-carbonyl]-2,6-diazaspiro[3.3]heptan-2-yl}pyrimidin-5-yl)oxy]-5-fluoro-N,N-di(propan-2-yl)benzamide] the IC50 [1] was over 100000 nM and the “hERG/RS4; 11” value [1] was over 6250.

CC(C)N(C(=O)c1cc(F)ccc1Oc1cncnc1N1CC2(CCN(C(=O)[C@H]3N[C@@H]4CC[C@H]3C4)CC2)C1)C(C)C [Example 16, 2-[(4-{7-[(1R,3S,4S)-2-azabicyclo[2.2.1]heptane-3-carbonyl]-2,7-diazaspiro[3.5]nonan-2-yl}pyrimidin-5-yl)oxy]-5-fluoro-N,N-di(propan-2-yl)benzamide] was tested, and the IC50 (MOLM-13 cells; Homo sapiens) was 40 nM, the IC50 [1] was over 100000 nM and the “hERG/RS4; 11” value [1] was over 3571.

With C=C1C[C@@H]2C[C@H]1[C@@H](C(=O)N1CCC3(CC1)CN(c1ncncc1Oc1ccc(F)cc1C(=O)N(C(C)C)C(C)C)C3)N2 [Example 18, 5-fluoro-2-[(4-{7-[(1S,3S,4R)-5-methylidene-2-azabicyclo[2.2.1]heptane-3-carbonyl]-2,7-diazaspiro[3.5]nonan-2-yl}pyrimidin-5-yl)oxy]-N,N-di(propan-2-yl)benzamide] the IC50 (MOLM-13 cells; Homo sapiens) was 40 nM, the IC50 [1] was 46100 nM and the “hERG/RS4; 11” value [1] was over 2095.

[2H]C([2H])=C1C[C@@H]2CC[C@H]1[C@@H](C(=O)N1CCC3(CC1)CN(c1ncncc1Oc1ccc(F)cc1C(=O)N(C(C)C)C(C)C)C3)N2 [Example 20, 5-Fluoro-2-[(4-{7-[(1S,3S,4R)-5-(^2H2)methylidene-2-azabicyclo[2.2.2]octane-3-carbonyl]-2,7-diazaspiro[3.5]nonan-2-yl}pyrimidin-5-yl)oxy]-N,N-di(propan-2-yl)benzamide] was tested, and the IC50 (MOLM-13 cells; Homo sapiens) was under 30 nM.
